From patent US8822535B2 (priority 2005, dated 2014)
Like-named read-outs stand apart in the source and are kept apart here.

Assays:
[1] = in vivo; cited from earlier work
dogs = test: Gas matrix: metabolic flexibility in altered gas environments, dogs; type: in vivo, dog; conditions: 0.85% in room air, mask, room temperature (22° C.)
Description: (§1) Metabolic flexibility was evaluated in mice rats and dogs using altered gas environments. Three parameters were used to define this reduction in metabolism including changes in carbon dioxide production, oxygen consumption measured by respirometry, and core temperature as measured using telemetry. In experiments with mice and rats the animals were placed into sealed chambers with one gas import and one gas export. For dogs a mask was placed over the snout of the animal with two hoses (import and export) attached to the mask. The flow rate of gas for each of the animals mice—500 cc per minute, rats—2 liters per minute, and dogs 40 liters per minute. Each atmosphere was constructed from compressed gas by dilution into room air unless otherwise noted. For rat and mouse experiments the ambient temperature was 7 to 10° C. during exposure to the test gases. For dogs ambient temperature was room temperature (22° C.).
(§2) Evidence of depression in metabolic rate of greater than 5-fold as judged by carbon dioxide production or oxygen consumption during a 6-hour treatment is described by “Yes”; […]; “N/D” denotes experiments not done. The temperature drop in the dog experiment (Carbon dioxide+low oxygen+Helium) was approximately 1.5° C. over the course of 30 minutes of exposure. This drop in temperature was considered significant because the dog was 12 kg and no such temperature drop was seen during extensive baseline recording of the animal in room air.

mice [2] = test: Gas matrix: metabolic flexibility in altered gas environments, mice; type: in vivo, mouse; conditions: 0.01% in room air, ambient 7 to 10° C., 6-hour treatment
Description: as §1, §2

mice [3] = tested on: mice
Text: Female C57BL/6J mice (Jackson Laboratories—Bar Harbor, Me.) were implanted with telemetry devices (PDT-4000 HR E-Mitter—MiniMitter Inc.—Bend, Oreg.) according to standard protocol provided by the manufacturer. Mice were allowed to recover for several weeks to permit body temperature and heart rate signals to stabilize. Core body temperature, heart rate, and movement of the mice were continuously monitored via the telemetry devices and recorded using VitalView software (provided by MiniMitter). Ambient temperature was monitored using a HOBO (Onset Computer Corp. —Pocasset, Mass.) and the data analyzed using BoxCar software (provided by Onset Computer Corp.).
Prior to and during exposure to testing in regulated and unregulated atmospheres, the mice were placed in a gassing chamber comprising a glass cage (with drinking water and no food) fitted with import and export tubes of FEP tubing from Cole-Parmer (Vernon Hills, Ill.) for introduction and venting of the atmosphere. The cage was sealed with a lid using Dow Corning silicone vacuum grease (Sigma—St. Louis, Mo.). The gas from each cage was vented through the export tube into the chemical hood. To ensure that the system was gas-tight, a GasTech GT portable monitor was used to detect leaks.
In some experiments, the consumption of oxygen was measured by use of a PA-10a O2 analyzer (Sable Systems) which was used according to manufacturers instructions. Similarly, the carbon dioxide being produced by the animals was monitored using a LI-7000 CO2/H2O analyzer (Li-Cor company) used according to the manufacturers instructions. These instruments were placed in line with the environmental chambers such that they sample the gas import and export tubing.
Mice were housed in a Shel Lab low temperature diurnal illumination incubator (Sheldon Manufacturing Inc. —Cornelius, Oreg.) to regulate both temperature and light cycle (8 AM lights on, 8 PM lights off) for the mice. Mice were exposed to regulated atmosphere as described above. When the mice were exposed to the regulated atmosphere, the temperature inside the incubator was dropped to the desired temperature, for example, to 10° C. or 15° C. The mice were maintained in the regulated atmosphere and at the lowered temperature for six hours. The atmosphere in the gassing chamber was replaced with room air and the mice were returned to normal room temperature (22° C.) and allowed to recover.
To test this hypothesis, the inventor wanted to continuously monitor both the core body temperature and the activity levels of a homeothermic animal (a mouse).

rats [4] = tested on: rats
Description: On the day of the experiment, catheters were surgically implanted into the right femoral artery and vein. Catheters exited behind scapulae. Rats were administered buprenorphine post-surgically and allowed to recover.
The anti-coagulant drug heparin (80-100 units) was administered intravenously as a bolus to decrease the clotting ability of the blood and enhance hemorrhage. […] Catheters, temperature probe, and gas sampling tube were passed through a hole drilled in the middle of the lid. Temperature was maintained at approximately isothermal temperature (27+/−2° C.).
The hemorrhage model was defined by the removal of 60% of total body blood over the course of a 40 minute bleed. Blood was removed using a peristaltic pump.
Blood was removed at the calculated rate via the femoral catheter artery. Blood was weighed as it was removed.
Metabolic rate was determined by measuring CO2 production (Licor Li7000). Temperature and CO2 data were collected (ADI PowerLab). Arterial blood values were measured (I-Stat blood chemistry analyzer). Following the bleed, animals were placed in a cage for three hours and observed. At the end of three hours, surviving rats were given lactated ringers ad libitum. For non-surviving animals, time of death was declared when animals stopped breathing and CO2 production ceased. […]

Drosophila melanogaster = test: Anoxia tolerance of Drosophila melanogaster after CO2 / H2S treatment; type: in vivo; conditions: adult flies
Description: Adult flies were introduced into 35 mL tubes made of glass with a gas-tight rubber stopper (Balsh tubes). This was usually accomplished by anesthetizing flies with CO2, moving groups of flies to vials with food to recover for at least 2 hours, and then transferring them into the Balsh tube. To exchange the gaseous environment in the Balsh tube, two 18 gauge needles were inserted into the rubber stopper, and gas is blown into one of the needles at 100 mL/min. To prevent dessication, gasses were humidified by bubbling through 10 mL of water before passing it through the Balsch tube. The water in the bubbler is equilibrated with the gas for at least 20 minutes before starting the experiment.
For “stopped-flow” experiments, gas exchange proceeded for 60 minutes before sealing the tube. For “low-flow” experiments, gas flow continued throughout the experiment. CO2 was from the house source (100%), and anoxic environments were established by flushing out room air with 100% nitrogen (N2). Care was taken to prevent introduction of room air into the system while switching the atmosphere from CO2 to N2.
After anoxic treatment, oxygen was reintroduced into the Balsh tube by flushing with house air for 20 minutes. The rubber stopper was then removed and a food vial is inverted over the top of the Balsh tubes with Parafilm. […] Viability was scored at least 18 hours after the end of anoxic treatment. After two weeks, if the food vials contained larvae and/or pupae the flies were considered to be fertile.

C. elegans nematodes = conditions: in vivo
rats [5] = test: Gas matrix: metabolic flexibility in altered gas environments, rats; type: in vivo, rat; conditions: 0.03% in room air, ambient 7 to 10° C., 6-hour treatment
Description: as §1, §2

mice [6] = type: in vivo, mouse (C57Bl/6)
[7] = 80 ppm H2S, 15 minutes, 0.5 L chamber

S [H2S, hydrogen sulfide]
LD50 [1]: approximately 700 ppm
adverse effects, gross and histopathological examination [1]: no observed adverse effect
behavioral toxicity [1]: Significant reductions in motor activity, water maze performance and body temperature
perinatal toxicity [1]: no neuropathological effects
tolerability [1]: innocuous
depression in metabolic rate, Dog (dogs): No 0.85% (“No” (reduction or less than a 5-fold reduction in these values is described as such)
depression in metabolic rate, Mouse (mice [2]): Yes 0.01% (Evidence of depression in metabolic rate of greater than 5-fold as judged by carbon dioxide production or oxygen consumption during a 6-hour treatment is described by “Yes”)
core body temperature reached repeatedly (mice [3]; 80 ppm): 13-15 °C
reduction in carbon dioxide production (mice [3]; 80 ppm H2S (FIG. 4A)): approximately 3 fold
drop in carbon dioxide production (mice [3]; [7]): 3-4 fold
drop in oxygen consumption (mice [3]; [7]): 2-3 fold
heart rate (mice [3]; 80 ppm, 3 hrs, dropped from 600 bpm): 250 bpm
lowest core body temperature recorded (mice [3]; 80 ppm, ambient temperature dropped to less than 10° C. (FIG. 7)): 10.7 °C
core temperature (mice [3]; 80 ppm, cabinet 10° C., telemetry mouse, estimation from slope after electronics failed at 15.3° C.): approximately 12.5 °C
core body temperature (mice [3]; 80 ppm, cabinet 10.5° C., approximately six hours): 10.5 °C
decrease in cellular respiration (mice [3]; 80 ppm, core temperature 15° C.): 1-20 fold
breathing (mice [3]; 80 ppm, core temperature dropped to 15° C.): 1-10 breaths per minute
core temperature (mice [3]; 80 ppm, incubator 18° C., 90 min): 28.6 °C
core temperature (mice [3]; 80 ppm, incubator 18° C., 3 hrs): 18.6 °C
Consumption of oxygen (mice [3]; H2S (80 ppm) present): 1300 ppm
production of carbon dioxide (mice [3]; H2S (80 ppm) present): 750 ppm
RQ (mice [3]; mouse, in vivo): 0.58
behavior of the animals (mice [3]; mouse, in vivo): no apparent change in the behavior
behavior tests (SHIRPA protocol) (mice [3]; mouse, in vivo): no detectable behavioral differences
lowest average core body temperature (mice [3]; seven mice, 80 ppm, 6 hrs, ambient temperature 13° C.): 15 °C
survival of the hemorrhage (rats [4]; 2000 ppm H2S in room air at 20 minutes of the 40 minute bleed, generally 1 to 2 minutes, 7 out of 8): 88%
signs during exposure (rats [4]; rat, in vivo): apnea and dystonia
survival (Drosophila melanogaster; 50 ppm H2S in room air prior to 18.5 h anoxia): 25%
survival (Drosophila melanogaster; 50 ppm H2S present in the CO2 pretreatment and removed as anoxia is established, 20 h): 35%
survival (Drosophila melanogaster; CO2 10 min, H2S/CO2 10 min, N2/H2S 10 min, then N2, 15 h anoxic exposure, low-flow): 50%
lethality (C. elegans nematodes): considerable lethality
progeny (C. elegans nematodes): same number of progeny
depression in metabolic rate, Rat (rats [5]): Yes 0.03% (Evidence of depression in metabolic rate of greater than 5-fold as judged by carbon dioxide production or oxygen consumption during a 6-hour treatment is described by “Yes”)
drop in CO2 production during hypoxia from pre-exposure level (mice [6]; 150 ppm H2S 20 minutes, then 5% O2 for several hours (FIG. 25)): approximately 50 fold
CO2 output (mice [6]; 150 ppm H2S 20 minutes, then several hours of 5% O2, pre-exposure approximately 2500 ppm): approximately 50 ppm
survival time at lethal oxygen tensions (mice [6]; 150 ppm H2S prior to oxygen tension reduced to between 5% and 2.5% (FIG. 24)): at least 60 minutes
reduction in CO2 evolution (mice [6]; pre-treatment with H2S, new lower baseline): 50-60%
